Structures can show the parent of a compound that is named as a salt. Where two headings read alike, the source gives them in different places. Where a SMILES comes first, the peptide text is derived from it. Bridges are numbered along the chain shown (N, C = ends). [ ]: non-standard residue; d: D form. The star is where a group is joined. Ileψ(thiazoline)Cys = CC[C@H](C)[C@H](N)C1=N[C@H](C(=O)*)CS1; dOrn = NCCC[C@@H](N)C(=O)O

For the assay, the system named is p62-dependent mitophagy. As to the kind of experiment: Luciferase-p62 assay (Fluc-p62 clearance) in mouse embryonic fibroblasts. The class given is cell-based. The method in brief:
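MEFs with doxycycline-inducible Fluc-p62; after induction, doxycycline removed and cells treated 48 h with compounds at 10 μM. Fluc-p62 clearance, taken as mitophagy, read by ONE-Glo+Tox luciferase with viability. Vehicle (DMSO) as negative control; activity also expressed relative to rapamycin.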

[1] abbreviates: Luciferase-p62 assay, mouse embryonic fibroblasts (MEFs), compounds at 10 μM.
[2] abbreviates: percentage of Luciferase-p62 clearance relative to baseline (mean luminescence in the absence of doxycycline induction), MEFs, 10 μM.
Where [3] appears, read: percentage of activity relative to rapamycin tested in the same experiment at the same concentration, MEFs, 10 μM.

Regarding `CC(C)CC(=O)NCC(=O)O` [Isovaleroylglycine], the “Mean Luminescence” value under setting [1] was 776.88. Further, the “% Activity over baseline” value under setting [2] was found to be 51.99%. The “% Activity relative to Rapamycin” value under setting [3] came to 93.67%.

In the case of `COc1cc(C=O)cc(OC)c1O` [Syringaldehyde], under setting [1], the “Mean Luminescence” value is 896.55. Besides, the “% Activity over baseline” value under setting [2] came out at 44.59%. The “% Activity relative to Rapamycin” value under setting [3] is on record as 80.34%.

Regarding `COC(=O)[C@H]1[C@H]2C[C@@H]3c4[nH]c5cc(OC)ccc5c4CCN3C[C@H]2C[C@@H](OC(=O)c2cc(OC)c(OC)c(OC)c2)[C@@H]1OC` [Reserpine hydrochloride], the “Mean Luminescence” value under setting [1] worked out at 810.13. Also, the “% Activity over baseline” value under setting [2] was determined as 49.93%. The “% Activity relative to Rapamycin” value under setting [3] came to 89.97%.

For the compound `C/C=C(\C)C(=O)O` [Tiglic acid], the “Mean Luminescence” value under setting [1] stood at 947.74. Besides, the “% Activity over baseline” value under setting [2] is recorded as 41.43%. The “% Activity relative to Rapamycin” value under setting [3] was 74.64%.

In the case of `Cc1cnc(C(=O)O)c[n+]1[O-]` [Acipimox], the “Mean Luminescence” value under setting [1] came to 922.85. Moreover, the “% Activity over baseline” value under setting [2] worked out at 42.97%. The “% Activity relative to Rapamycin” value under setting [3] was 77.42%.

As for `CO[C@@]12[C@H](COC(N)=O)C3=C(C(=O)C(C)=C(N)C3=O)N1C[C@@H]1N[C@@H]12` [Mitomycin C], the “Mean Luminescence” value under setting [1] is recorded as 867.02. For the same compound, the “% Activity over baseline” value under setting [2] is listed as 46.42%. Also, the “% Activity relative to Rapamycin” value under setting [3] is listed as 83.63%.

Turning to Bleomycin Sulfate, the “Mean Luminescence” value under setting [1] was determined as 615.38. Besides, the “% Activity over baseline” value under setting [2] is on record as 61.97%. Under setting [3], the “% Activity relative to Rapamycin” value was 111.65%.

On to `CC(C)(CO)C(O)C(=O)NCCCO` (racemic) [DL-Panthenol], for which, under setting [1], the “Mean Luminescence” value worked out at 991.50. In addition, the “% Activity over baseline” value under setting [2] came to 38.72%. Besides, under setting [3], the “% Activity relative to Rapamycin” value is 69.77%.

`Oc1c(Cl)cc(Cl)c2cccnc12` [Chloroxine]: the “Mean Luminescence” value under setting [1] was determined as 272.45. In addition, under setting [2], the “% Activity over baseline” value is reported as 83.16%. Also, the “% Activity relative to Rapamycin” value under setting [3] is 149.84%.

Regarding `O=c1ccn([C@H]2C[C@H](O)[C@@H](CO)O2)c(=O)[nH]1` [Compound 2-Deoxyuridine], under setting [1], the “Mean Luminescence” value was 867.92. Besides, under setting [2], the “% Activity over baseline” value is 46.36%. For the same compound, under setting [3], the “% Activity relative to Rapamycin” value amounted to 83.53%.

Take `CN1CCN(c2cc3c(cc2F)c(=O)c(C(=O)O)cn3-c2ccc(F)cc2)CC1` [Difloxacin HCl]: the “Mean Luminescence” value under setting [1] was found to be 980.30. Also, the “% Activity over baseline” value under setting [2] worked out at 39.42%. Besides, the “% Activity relative to Rapamycin” value under setting [3] is on record as 71.02%.

Consider `C/C=C1/[C@H](O[C@@H]2O[C@H](CO)[C@@H](O)[C@H](O)[C@H]2O)OC=C(C(=O)OC)[C@H]1CC(=O)OCCc1ccc(O)c(O)c1` [Oleuropein], for which the “Mean Luminescence” value under setting [1] came out at 843.32. For the same compound, under setting [2], the “% Activity over baseline” value was determined as 47.88%. For the same compound, the “% Activity relative to Rapamycin” value under setting [3] was 86.27%.

On to `CC(C)=CCC[C@@H](C)[C@H]1CC[C@@]2(C)C3=C(CC[C@]12C)[C@@]1(C)CC[C@H](O)C(C)(C)[C@@H]1CC3` [Lanosterol], for which the “Mean Luminescence” value under setting [1] is 957.65. The “% Activity over baseline” value under setting [2] came to 40.82%. Further, the “% Activity relative to Rapamycin” value under setting [3] is given as 73.54%.

Turning to `O[C@@H]1[C@@H](O)[C@H](OC/C=C/c2ccccc2)O[C@H](CO[C@@H]2OC[C@H](O)[C@H](O)[C@H]2O)[C@H]1O` [Rosavin], under setting [1], the “Mean Luminescence” value is 983.74. Further, the “% Activity over baseline” value under setting [2] is reported as 39.20%. Moreover, the “% Activity relative to Rapamycin” value under setting [3] is 70.64%.

Turning to `Nc1ncnc2c1ncn2[C@@H]1O[C@H](COP(=O)(O)O)[C@@H](O)[C@H]1O` [Adenosine 5-monophosphate], the “Mean Luminescence” value under setting [1] stood at 890.00. For the same compound, under setting [2], the “% Activity over baseline” value was 45.00%. Besides, the “% Activity relative to Rapamycin” value under setting [3] stood at 81.07%.

Regarding `C[C@]12CCC(=O)C=C1CC[C@@H]1[C@@H]2[C@@H](O)C[C@@]2(C)[C@H]1CC[C@]2(O)C(=O)COC(=O)CCC(=O)[O-].[Na+]`, the “Mean Luminescence” value under setting [1] is on record as 927.92. Moreover, the “% Activity over baseline” value under setting [2] turned out to be 42.65%. The “% Activity relative to Rapamycin” value under setting [3] stood at 76.85%.

For `C[C@@H]1CCCCCCCCCCCCC(=O)C1` [Muscone], the “Mean Luminescence” value under setting [1] came to 869.43. Under setting [2], the “% Activity over baseline” value came to 46.27%. Also, the “% Activity relative to Rapamycin” value under setting [3] was 83.36%.

As for `COC(=O)c1c2c(c3ccccc3c1O)OC(C)(C)C=C2` [Mollugin], the “Mean Luminescence” value under setting [1] is 709.65. Further, the “% Activity over baseline” value under setting [2] was determined as 56.14%. Further, the “% Activity relative to Rapamycin” value under setting [3] was found to be 101.16%.

As for `Cl.Cl.NCCCCN` [1,4-Diaminobutane dihydrochloride], the “Mean Luminescence” value stood at 902.42. Moreover, under “10 µM”, the “% Activity over baseline” value is recorded as 44.23% and the “% Activity relative to Rapamycin” value worked out at 79.69%.

Turning to `O=C1O[C@H]2[C@@H]3OC(=O)c4cc(O)c(O)c(O)c4-c4c(O)c(O)c5oc(=O)c6c(c(O)c(O)c7oc(=O)c4c5c76)-c4c(cc(O)c(O)c4O)C(=O)OC[C@H]3OC(O)[C@@H]2OC(=O)c2cc(O)c(O)c(O)c2-c2c1cc(O)c(O)c2O` (mixture of isomers) [Punicalagin], the “Mean Luminescence” value under setting [1] is 782.52. Moreover, the “% Activity over baseline” value under setting [2] is 51.64%. Under setting [3], the “% Activity relative to Rapamycin” value is 93.04%.

Take `CC[C@H](C)[C@H](N)C1=N[C@H](C(=O)N[C@@H](CC(C)C)C(=O)N[C@H](CCC(=O)O)C(=O)N[C@H](C(=O)N[C@H]2CCCCNC(=O)[C@H](CC(N)=O)NC(=O)[C@@H](CC(=O)O)NC(=O)[C@H](Cc3cnc[nH]3)NC(=O)[C@@H](Cc3ccccc3)NC(=O)[C@H]([C@@H](C)CC)NC(=O)[C@@H](CCCN)NC2=O)[C@@H](C)CC)CS1` [Bacitracin] ({Ileψ(thiazoline)Cys}-L[dE]IK[dOrn]I[dF]H[dD]N; lactam 4-C): the “Mean Luminescence” value under setting [1] is reported as 860.05. For the same compound, the “% Activity over baseline” value under setting [2] is recorded as 46.85%. Moreover, the “% Activity relative to Rapamycin” value under setting [3] was found to be 84.41%.

For the compound `CC(C)(C)NCC(O)c1cc(Cl)c(N)c(Cl)c1` (stereo not shown) [Clenbuterol (hydrochloride)], the “Mean Luminescence” value under setting [1] was 994.53. For the same compound, the “% Activity over baseline” value under setting [2] is reported as 38.54%. Further, the “% Activity relative to Rapamycin” value under setting [3] turned out to be 69.44%.

Turning to `CC1(C)S[C@@H]2[C@H](NC(=O)Cc3ccccc3)C(=O)N2[C@H]1C(=O)O` [Benzylpenicillin potassium], the “Mean Luminescence” value under setting [1] is listed as 937.79. Moreover, under setting [2], the “% Activity over baseline” value was determined as 42.04%. Also, the “% Activity relative to Rapamycin” value under setting [3] is recorded as 75.75%.

On to `C[C@@H]1CC[C@H]2[C@@H](C)C(=O)O[C@@H]3O[C@@]4(C)CC[C@@H]1[C@]32OO4` [Artemisinine], for which the “% Activity over baseline” value under setting [2] worked out at 39.29%.

For `CO[C@H]1C[C@H](O[C@H]2CC[C@@]3(C)[C@H](CC[C@@H]4[C@@H]3CC[C@]3(C)[C@@H](C5=CC(=O)OC5)[C@@H](OC(C)=O)C[C@]43O)C2)O[C@@H](C)[C@@H]1O` [Oleandrin], under setting [1], the “Mean Luminescence” value turned out to be 766.18. Further, the “% Activity over baseline” value under setting [2] turned out to be 52.65%. In addition, the “% Activity relative to Rapamycin” value under setting [3] stood at 94.86%.

Regarding `COc1cccc2c1C(=O)c1c(O)c3c(c(O)c1C2=O)C[C@@](O)(C(=O)CO)C[C@@H]3O[C@H]1C[C@H](N)[C@H](O[C@@H]2CCCCO2)[C@H](C)O1` [Pirarubicin], the “Mean Luminescence” value under setting [1] is recorded as 978.32. For the same compound, under setting [2], the “% Activity over baseline” value turned out to be 39.54%. For the same compound, the “% Activity relative to Rapamycin” value under setting [3] turned out to be 71.24%.

These data come from patent publication US20250381110A1, “SKIN CARE COMPOSITION AND METHOD OF USING THE SAME” (THE PROCTER & GAMBLE COMPANY, priority 2024, published 2025).
